Measured values reported in publication PMC8305389, “Tuning Photodynamic Properties of BODIPY Dyes, Porphyrins’ Little Sisters” (Molecules, 2021).
Marks after values point to notes of the source that are not given here.

How the values were obtained:
[1] = system: HeLa cells; design: method as in PMID 27682881; conditions: on HeLa cells; cited from earlier work
[2] = system: HeLa cells; design: method as in PMID 27682881; conditions: cited from earlier work; for EC50: HeLa, λ > 570 nm, 12.4 mW cm−2, 15 min, 11.2 J cm−2, read-out: EC50, photodynamic activity; for TC50/EC50, phototherapeutic index: on HeLa cells
[3] = system: SK-MEL-28 cells; assay: RealTime-Glo Annexin V Apoptosis and Necrosis Assay (cell death determination); format: cell-based, human; conditions: TRAIL 400 ng/mL, paclitaxel 1 μM, digitonin 25 μg/mL
Source text: A RealTime-Glo™ Annexin V Apoptosis and Necrosis Assay (Promega, Madison, WI, USA) was utilized for the real-time assessment of cell death. This monitors phosphatidylserine exposure on the outer leaflet of the cytoplasmic membrane (increase in luminescence signal) together with binding of the membrane-impermeable probe to DNA (increase in fluorescence signal) that accompanies a loss of membrane integrity, typical for late stages of apoptosis (secondary necrosis) or necrotic type of cell death. According to the manufacturer, this assay uses Annexin V fusion proteins containing complementary subunits of luciferase (Annexin V-LgBiT and Annexin V-SmBiT). The luminescence signal is low until both subunits bind to phosphatidylserine, and in close vicinity form functional luciferase.
For this assay, SK-MEL-28 cells were seeded onto 96-well white clear-bottom plates (Corning, New York, NY, USA) in a 1:1 mixture of DMEM and CO2 independent medium (Gibco; supplemented with 10% FBS, 1% penicillin/streptomycin solution and 4 mM ultraglutamine I). The next day, the medium was replaced with a fresh CO2 independent medium, and cells were incubated overnight. The next day, studied PSs dissolved in a CO2 independent medium in concentrations corresponding to their EC85 were added as described above. […] After mixing, samples were placed into a plate reader with a temperature control (Tecan Spark, Männedorf, Switzerland) and measured each 15 min for 24 h—luminescence (200 ms integration time) and fluorescence (λexc = 485 nm; λemi = 530 nm, BPexc/emi = 20 nm; 10 flashes per well, 40 μs integration time).
Digitonin (25 μg/mL), TRAIL (400 ng/mL), and paclitaxel (1 μM) were used as positive controls for membrane-disturbing-agent induced necrosis, extrinsic-pathway-mediated apoptosis, and intrinsic-pathway-mediated apoptosis, respectively. Cell-free wells (no-cell controls) were used to subtract background luminescence and fluorescence for each time point. […]

Molecule	TC50, dark toxicity [1]	EC50 [2] [nM]	TC50/EC50, phototherapeutic index [2]	delay between luminescence (Annexin V) and fluorescence (DNA probe) signal surge, positive controls [3]
Oc1cccc(-c2c3nc(c(-c4cccc(O)c4)c4ccc([nH]4)c(-c4cccc(O)c4)c4nc(c(-c5cccc(O)c5)c5ccc2[nH]5)CC4)C=C3)c1 [temoporfin]	20.6 ± 2.5 ^d μM	45 ± 7	460 ^d	
CN(C)c1ccc2nc3ccc(=[N+](C)C)cc-3sc2c1 [Methylene blue]	22.7 ± 7.9 ^d μM	5150 ± 1930	4.4 ^d	
C=CC1=C(C)c2cc3[nH]c(cc4nc(cc5[nH]c(cc1n2)c(C)c5CCC(=O)O)C(CCC(=O)O)=C4C)c(C)c3C=C [Pp IX, protoporphyrin IX]	>10 ^b,d μM	800 ± 130	>10 ^d	
C[C@@H]1CC[C@@]2(OC1)O[C@H]1[C@@H](O)[C@H]3[C@@H]4CC[C@H]5C[C@@H](O[C@@H]6O[C@H](CO)[C@H](O[C@@H]7O[C@H](CO)[C@@H](O)[C@H](O[C@@H]8OC[C@@H](O)[C@H](O)[C@H]8O)[C@H]7O[C@@H]7O[C@H](CO)[C@H](O)[C@H](O[C@@H]8O[C@H](CO)[C@@H](O)[C@H](O)[C@H]8O)[C@H]7O)[C@H](O)[C@H]6O)[C@H](O)C[C@]5(C)[C@H]4CC[C@]3(C)[C@H]1[C@@H]2C [digitonin]				simultaneous and immediate rise in luminescence and fluorescence
CC(=O)O[C@H]1C(=O)[C@@]2(C)[C@H]([C@H](OC(=O)c3ccccc3)[C@]3(O)C[C@H](OC(=O)[C@H](O)[C@@H](NC(=O)c4ccccc4)c4ccccc4)C(C)=C1C3(C)C)[C@]1(OC(C)=O)CO[C@@H]1C[C@@H]2O [paclitaxel]				~11.5 h
TRAIL: inducer of extrinsic-pathway apoptosis, positive control (protein, UniProt P50591 1-281, looked up) Tumor necrosis factor ligand …: MAMMEVQGGPSLGQTCVLIVIFTVLLQSLCVAVTYVYFTNELKQMQDKYSKSGIACFLKEDDSYWDPNDEESMNSPCWQVKWQLRQLVRKMILRTSEETISTVQEKQQNISPLVRERGPQRVAAHITGTRGRSNTLSSPNSKNEKALGRKINSWESSRSGHSFLSNLHLRNGELVIHEKGFYYIYSQTYFRFQEEIKENTKNDKQMVQYIYKYTSYPDPILLMKSARNSCWSKDAEYGLYSIYQGGIFELKENDRIFVSVTNEHLIDMDHEASFFGAFLVG				approximately 3.5 h
